# Experiments:
# PDC-109 [1] = molecular target: T1, PDC-109 (Bos taurus, UniProt P02784); assay: isothermal titration calorimetry, one set of sites model; assay type: binding; settings: read-out: K a×10^-5 (M^-1) (converted)
# T1 construct: native, purified from bull seminal plasma; 109 residues, 23-residue N-terminal stretch plus two Fn-II domains; mixture of glycoforms BSP-A1 and BSP-A2; polydisperse aggregate in solution
# T1 sequence (P02784 26-134): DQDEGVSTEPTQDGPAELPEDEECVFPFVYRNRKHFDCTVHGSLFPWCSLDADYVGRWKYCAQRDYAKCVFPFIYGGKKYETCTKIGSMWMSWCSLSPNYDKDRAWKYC
# Excerpt: isothermal titration calorimetry, one set of sites model on PDC-109
# PDC-109 [2] = molecular target: T1, PDC-109; assay: isothermal titration calorimetry, two sets of sites model; assay type: binding; settings: 25 °C; stronger site of two-site fit (n = 0.9), assigned to micelles; acyl chain of lipid not given; read-out: K a (converted)
Compound,Kd (PDC-109 [1]) [µM],Kd (PDC-109 [2]) [µM]
CCCCCCCCCCCCCC(=O)OC[C@H](COP(=O)([O-])OCC[N+](C)(C)C)OC(=O)CCCCCCCCCCCCC [DMPC],2.44,
CCCCCCCCCCCCCC(=O)OC[C@H](COP(=O)(O)OCC(O)CO)OC(=O)CCCCCCCCCCCCC (stereo partly shown) [DMPG],38.5,
CCCCCCCCCCCCCCCC(=O)OC[C@H](COP(=O)([O-])OCC[N+](C)(C)C)OC(=O)CCCCCCCCCCCCCCC [DPPC],7.69,
Lyso-PC,,1.43

# Source: publication PMC3193528, “Isothermal Titration Calorimetric Studies on the Interaction of the Major Bovine Seminal Plasma Protein, PDC-109 with Phospholipid Membranes” (PLoS ONE, 2011)
